The text below walks through data of PMC12020230 (Fluids and Barriers of the CNS, 2025).

The subject of one data set is choroid plexus. Put plainly: ^86Rb^+ efflux from excised choroid plexus upon PKA inhibition. Type of data set: cell-based, rat. Conditions: H89 50 µM vs control, n = 5 of each, P < 0.01.
The next data set concerns patients. Particulars: midazolam anaesthesia, ref [48]; cited from earlier work.
Data set [1] deals with idiopathic intracranial hypertension (IIH) patients. Particulars: small clinical trial, ref [27]; cited from earlier work.
The conditions of data set [2]: ref [58]; cited from earlier work.

Take `O=S(=O)(NCCNC/C=C/c1ccc(Br)cc1)c1cccc2cnccc12` [H89]: the “reduction of K^+ efflux across the luminal membrane” value in the data set on choroid plexus came out at 25%.

For `Cc1ncc2n1-c1ccc(Cl)cc1C(c1ccccc1F)=NC2` [midazolam], the “effect on ICP and perfusion pressure” value with patients was “reported to modulate ICP and perfusion pressure in patients”.

As for “Exenatide: GLP-1R agonist Exenatide, which has the same amino acid sequence as Ex4”, in data set [1], the ICP reductions is 1–3 mmHg.

In the case of “semaglutide: another GLP-1 receptor agonist, semaglutide”, the “risk of NAION” value in data set [2] is listed as “associated with increased risk of non-arteritic anterior ischemic optic neuropathy (NAION)”.
